Experiment [1] deals with C-C chemokine receptor type 2 (Homo sapiens, UniProt P41597). The experiment is classed as cell membranes, CHO-K1, Membrane. Particulars: cho-k1.
Experiment [2] is described as follows: DRUGMATRIX: Purinergic P2X radioligand binding (ligand: [3H] alpha, beta-Methylene-ATP). The experiment is classed as cell membranes, Oryctolagus cuniculus, New Zealand albino, Urinary bladder, Membrane. Particulars: Not Active = under 50% inhibition at 10 µM.
Experiment [3] in a line: DRUGMATRIX: Leukotriene, BLT (LTB4) radioligand binding (ligand: [3H]LTB4). The experiment is classed as cell membranes, Membrane. To be noted: u-937; Not Active = under 50% inhibition at 10 µM.
Experiment [4] in a line: DRUGMATRIX: Atrial Natriuretic Factor (ANF) radioligand binding (ligand: [125I] ANF (rat)). Particulars: Not Active = under 50% inhibition at 10 µM. The experiment is classed as cell membranes, Cavia porcellus, Dunkin-Hartley, Adrenal gland, Membrane.
Another experiment deals with T1, Cathepsin G (Homo sapiens, UniProt P08311).
T1 sequence (P08311 whole entry): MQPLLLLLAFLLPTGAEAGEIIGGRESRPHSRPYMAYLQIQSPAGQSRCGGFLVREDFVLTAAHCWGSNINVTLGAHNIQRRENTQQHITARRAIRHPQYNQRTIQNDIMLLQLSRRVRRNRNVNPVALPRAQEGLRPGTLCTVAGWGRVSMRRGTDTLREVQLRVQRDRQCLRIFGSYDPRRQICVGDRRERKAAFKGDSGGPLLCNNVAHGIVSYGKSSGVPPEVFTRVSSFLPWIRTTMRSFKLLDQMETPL
The experiment is classed as tissue-based. To be noted: neutrophil.

In a further experiment the target is T2, Thromboxane-A synthase (Homo sapiens, UniProt P24557).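 Also: enzyme inhibition assay with PGH2 supplied as substrate; in other assays of this panel Not Active means under 50% inhibition at 10 µM.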
T2 sequence (P24557 whole entry): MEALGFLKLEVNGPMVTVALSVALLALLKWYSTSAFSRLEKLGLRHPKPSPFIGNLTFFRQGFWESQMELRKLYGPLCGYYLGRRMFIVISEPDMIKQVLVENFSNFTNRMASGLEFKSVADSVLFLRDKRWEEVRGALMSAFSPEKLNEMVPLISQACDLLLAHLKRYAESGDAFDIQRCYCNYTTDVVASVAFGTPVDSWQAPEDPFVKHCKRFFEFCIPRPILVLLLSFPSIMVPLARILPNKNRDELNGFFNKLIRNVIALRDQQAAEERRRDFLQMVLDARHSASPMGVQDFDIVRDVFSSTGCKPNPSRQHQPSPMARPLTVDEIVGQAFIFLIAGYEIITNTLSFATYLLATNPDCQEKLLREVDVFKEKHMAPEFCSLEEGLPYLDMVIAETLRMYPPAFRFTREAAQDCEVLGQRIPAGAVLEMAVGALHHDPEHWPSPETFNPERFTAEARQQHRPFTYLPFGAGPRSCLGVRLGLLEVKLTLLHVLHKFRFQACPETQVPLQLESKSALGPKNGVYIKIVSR
In words: biochemical. It counts as tissue-based, Platelet.

Experiment [5] in a line: DRUGMATRIX: ATPase, Na+/K+ enzyme inhibition (substrate: ATP). The experiment is classed as tissue-based, Sus scrofa, Heart. To be noted: Not Active = under 50% inhibition at 10 µM.
Experiment [6] has as its target Aldo-keto reductase family 1 member B1 (Rattus norvegicus, UniProt P07943). Kind of experiment: biochemical. The experiment is classed as tissue-based, Lens of camera-type eye.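 Also: inhibition of aldose reductase enzyme activity, measured with DL-glyceraldehyde as the substrate; in other assays of this panel Not Active means under 50% inhibition at 10 µM.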

C-C chemokine receptor type 2, sequence (P41597 whole entry): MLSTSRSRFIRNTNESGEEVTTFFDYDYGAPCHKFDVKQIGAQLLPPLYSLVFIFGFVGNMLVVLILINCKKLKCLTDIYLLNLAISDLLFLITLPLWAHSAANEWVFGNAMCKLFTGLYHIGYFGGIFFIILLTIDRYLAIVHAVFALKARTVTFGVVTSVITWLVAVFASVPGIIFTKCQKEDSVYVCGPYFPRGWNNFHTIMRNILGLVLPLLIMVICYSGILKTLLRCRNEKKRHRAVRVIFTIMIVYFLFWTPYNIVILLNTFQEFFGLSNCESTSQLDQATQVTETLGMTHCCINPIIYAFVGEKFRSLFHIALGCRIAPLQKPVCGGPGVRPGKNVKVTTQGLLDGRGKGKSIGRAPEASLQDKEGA

By IC50 is commonly meant the point on the concentration scale where inhibition reaches its midpoint. As for `CC(C)CN(C[C@@H](O)[C@H](Cc1ccccc1)NC(=O)O[C@H]1CCOC1)S(=O)(=O)c1ccc(N)cc1`, the IC50 entry is “Not Active” in experiment [1]; “Not Active” in experiment [2]; “Not Active” in experiment [3]; “Not Active” in experiment [4]; “Not Active” at Cathepsin G; 6.73 µM on Thromboxane-A synthase (read-out: IC50). Besides, the half-inhibitory concentration (IC50) entry in experiment [5] and in experiment [6] was “Not Active” in each case. Also, the Ki result in experiment [2], in experiment [3], in experiment [4] and in experiment [5] was “Not Active” each time.
Consider `CN(C)CCCN1c2ccccc2Sc2ccccc21` [PROMAZINE], for which the IC50 result (in experiment [1]; in experiment [2]; in experiment [3]; in experiment [4]; against Cathepsin G; against Thromboxane-A synthase (platelet)) was “Not Active” in each case. Also, the half-maximal inhibitory concentration (IC50) entry in experiment [5] and in experiment [6] was “Not Active” in each case. Besides, the Ki result in experiment [2], in experiment [3], in experiment [4] and in experiment [5] was “Not Active” throughout.
As to `Cc1c(C)c2c(c(C)c1O)CC[C@@](C)(CCC[C@H](C)CCC[C@H](C)CCCC(C)C)O2` [ALPHA-TOCOPHEROL], the IC50 result (in experiment [1]; in experiment [2]; in experiment [3]; in experiment [4]; against Cathepsin G; against Thromboxane-A synthase (platelet)) was “Not Active” in each case. Besides, the IC50 entry in experiment [5] and in experiment [6] was “Not Active” each time. For the same compound, the Ki result in experiment [2], in experiment [3], in experiment [4] and in experiment [5] was “Not Active” throughout.
As for `Cc1ccc(/N=C/N(C)/C=N/c2ccc(C)cc2C)c(C)c1` [AMITRAZ], the IC50 entry (in experiment [1]; in experiment [2]; in experiment [3]; in experiment [4]; against Cathepsin G; at Thromboxane-A synthase (platelet)) was “Not Active” each time. Moreover, the 50% inhibitory concentration (IC50) result in experiment [5] and in experiment [6] was “Not Active” in each case. For the same compound, the Ki result in experiment [2], in experiment [3], in experiment [4] and in experiment [5] was “Not Active” in each case.
In the case of `CN(C)c1nc(N(C)C)nc(N(C)C)n1` [ALTRETAMINE], the IC50 entry (in experiment [1]; in experiment [2]; in experiment [3]; in experiment [4]; at Cathepsin G; on Thromboxane-A synthase (platelet)) was “Not Active” throughout. The 50% inhibitory concentration (IC50) entry in experiment [5] and in experiment [6] was “Not Active” in each case. Further, the Ki result in experiment [2], in experiment [3], in experiment [4] and in experiment [5] was “Not Active” each time.
Regarding `CNCCCN1c2ccccc2CCc2ccccc21` [DESIPRAMINE], the half-inhibitory concentration (IC50) result (in experiment [1]; in experiment [2]; in experiment [3]; in experiment [4]; at Cathepsin G; at Thromboxane-A synthase (platelet)) was “Not Active” throughout. The half-maximal inhibitory concentration (IC50) entry in experiment [5] and in experiment [6] was “Not Active” throughout. The Ki result in experiment [2], in experiment [3], in experiment [4] and in experiment [5] was “Not Active” in each case.
Turning to CADMIUM ACETATE, the half-inhibitory concentration (IC50) result (in experiment [1]; in experiment [2]; in experiment [3]; in experiment [4]; on Cathepsin G; against Thromboxane-A synthase (platelet)) was “Not Active” each time. Moreover, the half-maximal inhibitory concentration (IC50) entry in experiment [5] and in experiment [6] was “Not Active” each time. Besides, the Ki result (in experiment [1]; in experiment [2]; in experiment [3]; in experiment [4]; at Cathepsin G; at Thromboxane-A synthase (platelet)) was “Not Active” each time. For the same compound, the Ki entry in experiment [5] and in experiment [6] was “Not Active” in each case.
As for `COc1cc2c3cc1Oc1cc(ccc1O)C[C@@H]1c4c(cc(OC)c(O)c4Oc4ccc(cc4)C[C@@H]3N(C)CC2)CC[N+]1(C)C.[Cl-]`, the IC50 entry (in experiment [1]; in experiment [2]; in experiment [3]; in experiment [4]; against Cathepsin G; against Thromboxane-A synthase (platelet)) was “Not Active” throughout. Also, the 50% inhibitory concentration (IC50) entry in experiment [5] and in experiment [6] was “Not Active” in each case. Besides, the Ki result in experiment [2], in experiment [3], in experiment [4] and in experiment [5] was “Not Active” each time.
`CN(Cc1ccc(C(C)(C)C)cc1)Cc1cccc2ccccc12` [BUTENAFINE]: the IC50 entry (in experiment [1]; in experiment [2]; in experiment [3]; in experiment [4]; on Cathepsin G; against Thromboxane-A synthase (platelet)) was “Not Active” throughout. The IC50 entry in experiment [5] and in experiment [6] was “Not Active” each time. Also, the Ki result in experiment [2], in experiment [3], in experiment [4] and in experiment [5] was “Not Active” each time.
Turning to `C[C@H](CCC(=O)O)[C@H]1CC[C@H]2[C@@H]3[C@H](O)C[C@@H]4C[C@H](O)CC[C@]4(C)[C@H]3C[C@H](O)[C@]12C` [CHOLIC ACID], the concentration for half-maximal inhibition (IC50) entry (in experiment [1]; in experiment [2]; in experiment [3]; in experiment [4]; against Cathepsin G; against Thromboxane-A synthase (platelet)) was “Not Active” throughout. The 50% inhibitory concentration (IC50) result in experiment [5] and in experiment [6] was “Not Active” each time. Moreover, the Ki entry in experiment [2], in experiment [3], in experiment [4] and in experiment [5] was “Not Active” each time.
As for `CC1=C2C(=CO[C@H](C)[C@H]2C)C(O)=C(C(=O)O)C1=O` [CITRININ], the IC50 entry (in experiment [1]; in experiment [2]; in experiment [3]; in experiment [4]; on Cathepsin G; at Thromboxane-A synthase (platelet)) was “Not Active” in each case. The IC50 entry in experiment [5] and in experiment [6] was “Not Active” throughout. Moreover, the Ki result in experiment [2], in experiment [3], in experiment [4] and in experiment [5] was “Not Active” each time.
As to `O=C(CCCN1CC=C(n2c(=O)[nH]c3ccccc32)CC1)c1ccc(F)cc1` [DROPERIDOL], the IC50 result (in experiment [1]; in experiment [2]; in experiment [3]; in experiment [4]; on Cathepsin G; against Thromboxane-A synthase (platelet)) was “Not Active” throughout. The half-maximal inhibitory concentration (IC50) result in experiment [5] and in experiment [6] was “Not Active” in each case. The Ki entry in experiment [2], in experiment [3], in experiment [4] and in experiment [5] was “Not Active” in each case.
Turning to `Cc1cc(C2CCCCC2)n(O)c(=O)c1` [CICLOPIROX], the 50% inhibitory concentration (IC50) entry (in experiment [1]; in experiment [2]; in experiment [3]; in experiment [4]; at Cathepsin G; against Thromboxane-A synthase (platelet)) was “Not Active” in each case. Besides, the half-maximal inhibitory concentration (IC50) entry in experiment [5] and in experiment [6] was “Not Active” each time. For the same compound, the Ki entry in experiment [2], in experiment [3], in experiment [4] and in experiment [5] was “Not Active” throughout.
For the compound `CCCCN1CCCC[C@H]1C(=O)Nc1c(C)cccc1C` [LEVOBUPIVACAINE], the half-inhibitory concentration (IC50) entry (in experiment [1]; in experiment [2]; in experiment [3]; in experiment [4]; against Cathepsin G; at Thromboxane-A synthase (platelet)) was “Not Active” throughout. The half-maximal inhibitory concentration (IC50) entry in experiment [5] and in experiment [6] was “Not Active” each time. Besides, the Ki result in experiment [2], in experiment [3], in experiment [4] and in experiment [5] was “Not Active” each time.
`CC[C@@]1(O)C[C@H](O[C@H]2C[C@H](N(C)C)[C@H](O[C@H]3C[C@H](O)[C@H](O[C@H]4CCC(=O)[C@H](C)O4)[C@H](C)O3)[C@H](C)O2)c2c(cc3c(c2O)C(=O)c2c(O)cccc2C3=O)[C@H]1C(=O)OC` [ACLARUBICIN]: the IC50 entry (in experiment [1]; in experiment [2]; in experiment [3]; in experiment [4]; on Cathepsin G; against Thromboxane-A synthase (platelet)) was “Not Active” in each case. Besides, the IC50 entry in experiment [5] and in experiment [6] was “Not Active” throughout. In addition, the Ki entry in experiment [2], in experiment [3], in experiment [4] and in experiment [5] was “Not Active” each time.

Values taken from ChEMBL document CHEMBL1909046, “DrugMatrix in vitro pharmacology data”.
